Laboratory results published in paper PMC6746776, “TA*p63 and GTAp63 achieve tighter transcriptional regulation in quality control by converting an inhibitory element into an additional transactivation domain” (Cell Death & Disease, 2019).
Entries after “also recorded” stand apart in the source; their conditions may differ.

What was measured:
TA*p63α in Sum159 cells [1] = assay: BN-PAGE of Sum159 lysate, oligomeric state of endogenous TA*p63α; format: cell-based, human; conditions: 10 µM Dox, different periods of time, BN-PAGE (3–12%)
Procedure: (§1) Immunoprecipitation was performed with two different p63 specific antibodies, AHP1815 (BioRad) and ab124267 (Abcam). For detection on WB, the p63α XP (D2K8X, cell signaling) antibody was used. b Specific TA*-peptides were found in two independent IP-MS analyses of immunoprecipitated p63 from Sum159 cells. Immunoprecipitation was performed with the p63 antibody ab124267 (Abcam). Two different types of mass spectrometers relying on different fragmentation and detection approaches were used for the experiments (IT: ion trap, CID: collision induced dissociation, FT: Fourier transform, HCD: higher-energy collisional dissociation). c BN-PAGE (3–12%) of Sum159 lysate followed by western blotting for TA*p63α. […] Cells were treated with 1.5 µM Dox or DMSO for 24 h (six-well plate) and cultured for additional 24–30 h. Sum159 cells were fixed with glutaraldehyde (6%) and stained with crystal violet (0.5%)
To test whether TA*p63α can be activated in Sum159 cells by chemotherapeutic agents and induce apoptosis we treated cells with 10 µM Dox. […] Furthermore, the apoptosis marker cleaved PARP and cleaved Caspase3 are detectable starting 4 h following treatment (Supplementary Fig. S8). We also investigated cell survival.

Sum159 cells [2] = assay: Western blot, apoptosis markers cleaved PARP and cleaved Caspase3 in Sum159 cells; format: cell-based, human; conditions: 10 µM Dox, immunoblotting
Procedure: (§2) 4–15 or 7.5% SDS–PAGE Mini-PROTEAN TGX gels (BioRad) were blotted using the semidry Trans-Blot Turbo Transfer system (BioRad).The following antibodies were prepared in 5% milk in TBS-T and incubated overnight at 4 °C: anti-Myc (1:1000, clone 4A6, Millipore), anti-p63 (1:2500, ab124762, Abcam), anti-p63α XP (1:1000, D2K8X, Cell Signaling), anti-GAPDH (1:20,000, clone 6C5, Merck), anti-p53 (1:500, DO-1, Santa Cruz), anti-PARP (1:1000, 9542, Cell Signaling), anti-cleaved caspase3 (1:1000, 5A1E,Cell Signaling), and anti-vinculin (1:1000, clone 7F9, Santa Cruz). Secondary antibodies, used for detection, were also prepared in 5% milk in TBS-T and incubated for 1 h at RT (goat anti-mouse HRP, 1:5000, A9917, Sigma–Aldrich; goat anti-rabbit HRP, 1:2000, Jackson Immuno Research Europe Ltd., 111–035–144). Quantification of western blot signals was performed by using ImageJ.
(§3) Supplementary Figure S8 Dox treatment induces apoptosis in the breast cancer cell line Sum159. SDS-PAGEs followed by immunoblotting of Dox treated (10 µM) Sum159 cells. (a) Western blot was analyzed for the apoptosis markers PARP (#9542, Cell Signaling) and caspase 3 (5A1E, Cell Signaling). PARP and caspase3 cleavage were detectable starting at 4 h following treatment. (b) Mutant p53 (DO-1, Santa Cruz) and TA*p63α (D2K8X, Cell Signaling) levels were also investigated. […] GAPDH was used as loading control.

Sum159 cells [3] = assay: Cell survival assay of Sum159 cells (crystal violet); format: cell-based, human; conditions: 1.5 µM Dox for 24 h, cultured for additional 24 h (24–30 h in method), vs DMSO
Procedure: as §1
Sum159 cells were seeded in a six-well plate. Two days after seeding, cells were treated either with 1.5 µM Dox or DMSO for 24 h. The medium was changed and cells were cultured for additional 24–30 h. Afterwards, cells were washed three times with PBS and the fixation and staining solution (0.5% crystal violet, 6% glutaraldehyde) was incubated 1–2 h at RT. The solution was aspirated and the fixed cells were washed about five times with H2O and dried for 1–2 days at RT.

TA*p63α in Sum159 cells [4] = assay: Western blot, TA*p63α level in Sum159 cells; format: cell-based, human; conditions: 10 µM Dox, immunoblotting (D2K8X)
Procedure: as §2, §3

[5] = system: mutant p53 in Sum159 cells; assay: Western blot, mutant p53 level in Sum159 cells; format: cell-based, human; conditions: 10 µM Dox, mutant p53, immunoblotting (DO-1)
Procedure: as §2, §3

TAp63α = assay: BN-PAGE oligomeric state of TAp63α upon Dox treatment
Procedure: (§4) As a control, we used the S582/S583A mutants, which remove the Chk2 priming site preventing tetramerization[13].
(§5) Three hundred nanogram expression vector carrying the p63α gene were transiently transfected in U2OS cells (12-well plate). The next day, cells were treated with 10 µM Dox for 6 h. Migration of the different oligomeric states is indicated by T (tetramer), D (dimer), and M (monomer). […] Western blot analysis was carried out using an anti-myc antibody (4A6, Merck). Cells were pre-incubated with increasing Chk2 (BML-277, Merck) or CK1 inhibitor (PF670462, Sigma–Aldrich) concentrations (5, 25, 50 µM) for 1 h. Afterwards, 10 µM Dox was added and cells were harvested 6 h later. Migration of the different oligomeric states is indicated by T (tetramer), D (dimer), and M (monomer). Vinculin was used as loading control. Protein levels loaded on BN-PAGE were adjusted to equal p63 amounts by prior western blot analysis. SDS-PAGE to detect phosphoshifts were not input adjusted
(§6) H1299 cells were transfected using the Qiagen Effectene kit according to the manufacturer’s manual in a 12-well plate or H1299 cells stably expressing p63 isoforms were used. Cells were harvested and lysed in NP lysis buffer (20 mM Tris, 150 mM NaCl, 2 mM MgCl2, 20 mM CHAPS, 1 mM DTT, complete protease inhibitor cocktail (Roche), PhosSTOP (Roche) pH 7.4 or pH 8.0). Benzonase (Merck) was added and samples were lysed on ice for 1 h. BN-PAGE (3–12%, Thermo Fisher Scientific) was performed and blotted as previously described[17],[35]. Protein levels loaded on BN-PAGE were adjusted to equal p63 amounts by prior western blot analysis. SDS-PAGE to detect phosphoshifts were not input adjusted.
(§7) 300 ng expression vector carrying the p63 gene were transiently transfected in H1299 cells (12-well plate). The next day, cells were treated with 10 µM Dox for 6 h. Migration of the different oligomeric states is indicated by T (tetramer), D (dimer) and M (monomer). […] Stably p63 expressing H1299 were treated with 10 µM Dox for up to 10 h. Protein levels loaded on BN-PAGE were adjusted to equal p63 amounts by prior western blot analysis. SDS-PAGE to detect phosphoshifts were not input adjusted.

TA*p63α = assay: BN-PAGE oligomeric state of TA*p63α upon Dox treatment
Procedure: as §4, §5, §6, §7

GTAp63α = assay: BN-PAGE oligomeric state of GTAp63α upon Dox treatment
Procedure: as §4, §5, §6, §7

TAp63α FWL = assay: SEC; in vitro translated protein in rabbit reticulocyte lysate on Superose 6 3.2/300, 50 mM sodium phosphate pH 7.8, 100 mM NaCl, 4 °C; fractions analysed by western blot
[6] = target: the molecule itself; assay: as above
[7] = H1299 stably expressing, 10 µM Dox for up to 10 h, BN-PAGE (Supplementary Fig. S4c)
[8] = transfected U2OS and H1299 cells, 10 µM Dox, 6 h, BN-PAGE

Molecule	shift of oligomeric state of TA*p63α in Sum159 cells (TA*p63α in Sum159 cells [1])	shift of oligomeric state of TA*p63α in Sum159 cells (TA*p63α in Sum159 cells [1]; listed as doxorubicin)	time from which cleaved Caspase3 is detectable (Sum159 cells [2])	time from which cleaved PARP is detectable (Sum159 cells [2])	cell survival (cell density) (Sum159 cells [3])	p63 level during treatment (TA*p63α in Sum159 cells [4])	p53 level during treatment [5]	tetramer/dimer ratio following Dox, TAp63α (TAp63α; [7])	time after which TAp63α becomes partly tetrameric (TAp63α; tetramerization kinetics, H1299 stably expressing, 10 µM Dox for up to 10 h)	activation to tetrameric state, TAp63α (TAp63α; [8])	tetramer/dimer ratio following Dox, TA*p63α (TA*p63α; [7])	activation to tetrameric state, TA*p63α (TA*p63α; [8])	tetramer/dimer ratio following Dox, GTAp63α (GTAp63α; [7])	activation to tetrameric state, GTAp63α (GTAp63α; [8])	stoichiometry N (TAp63α FWL)	stoichiometry N [6]
COc1cccc2c1C(=O)c1c(O)c3c(c(O)c1C2=O)C[C@@](O)(C(=O)CO)C[C@@H]3O[C@H]1C[C@H](N)[C@H](O)[C@H](C)O1 [Dox, doxorubicin]	activated upon Dox treatment; also recorded: shifted from the inactive, dimeric to the active, tetrameric form	TA*p63α gets activated	4 h	4 h	clear decrease in cell density	A decrease in p63 and p53 level is detectable	A decrease in p63 and p53 level is detectable	almost completely converted into tetramers	1 h	activates all three isoforms to adopt tetrameric states	do not achieve predominant tetramerization like TAp63α; also recorded: significant population of the dimeric state; also recorded: do not reach the high tetramer/dimer ratio seen with TAp63α	activates all three isoforms to adopt tetrameric states	do not achieve predominant tetramerization like TAp63α; also recorded: significant population of the dimeric state; also recorded: do not reach the high tetramer/dimer ratio seen with TAp63α	activates all three isoforms to adopt tetrameric states		
TA*p63α FWL (natural protein, UniProt Q9H3D4-1 1-680, looked up, TA*p63α: another translation start site adds 39 aa N-terminally to TAp63α; also called FWL mutant of TA*p63α; source: in vitro translated (rabbit reticulocyte lysate); not shown: myc, N-terminal, kept) MNFETSRCATLQYCPDPYIQRFVETPAHFSWKESYYRSTMSQSTQTNEFLSPEVAQHIADFAEQPICSVQPIDLNFVDEPSEDGATNKIEISMDCIRMQDSDLSDPMWPQYTNLGLLNSMDQQIQNGSSSTSPYNTDHAQNSVTAPSPYAQPSSTFDALSPSPAIPSNTDYPGPHSFDVSFQQSSTAKSATWTYSTELKKLYCQIAKTCPIQIKVMTPPPQGAVIRAMPVYKKAEHVTEVVKRCPNHELSREFNEGQIAPPSHLIRVEGNSHAQYVEDPITGRQSVLVPYEPPQVGTEFTTVLYNFMCNSSCVGGMNRRPILIIVTLETRDGQVLGRRCFEARICACPGRDRKADEDSIRKQQVSDSTKNGDGTKRPFRQNTHGIQMTSIKKRRSPDDELLYLPVRGRETYEMLLKIKESLELMQYLPQHTIETYRQQQQQQHQHLLQKQTSIQSPSSYGNSSPPLNKMNSMNKLPSVSQLINPQQRNALTPTTIPDGMGANIPMMGTHMPMAGDMNGLSPTQALPPPLSMPSTSHCTPPPPYPTDCSIVSFLARLGCSSCLDYFTTQGLTTIYQIEHYSMDDLASLKIPEQFRHAIWKGILDHRQLHEFSSPSHLLRTPSSASTVSVGSSETRGERVIDAVRFTLRQTISFPPRDEWNDFNFDMDARRNKQQRIKEEGE															4	2
